Measurements reported in patent US12371454B2, “Cyclic peptide compound having Kras inhibitory action” (priority 2019, dated 2025).
pIC50: −log10 of the molar value. Starred links: 1 amine or outer side, 2 acyl side, 3 side chain; linkers in the order of their positions; H or OH if unused. Positions of bridges follow the written chain, without caps; N, C: chain ends. Non-standard residues stand in square brackets, D forms with d. Residues, ends and D or L forms follow the SMILES beside them. *: point of attachment. hPhe(3-Cl-4-CF3) = N[C@@H](CCc1ccc(C(F)(F)F)c(Cl)c1)C(=O)O; NMeDab(N,N-(CH2CF2CH2)) = CN[C@@H](CCN1CC(F)(F)C1)C(=O)O; hPhe(3-F,4-CF3) = N[C@@H](CCc1ccc(C(F)(F)F)c(F)c1)C(=O)O; hPhe(3,4-Cl2) = N[C@@H](CCc1ccc(Cl)c(Cl)c1)C(=O)O; hPhe(4-CF3) = N[C@@H](CCc1ccc(C(F)(F)F)cc1)C(=O)O; Phe(4-CF3) = N[C@@H](Cc1ccc(C(F)(F)F)cc1)C(=O)O; X17 = Cc1cncc(C[C@@H](C(=O)[*:2])N(C)[*:1])c1; NMePhe(4-Cl) = CN[C@@H](Cc1ccc(Cl)cc1)C(=O)O; NMePhe(4-Me) = CN[C@@H](Cc1ccc(C)cc1)C(=O)O; Phe(4-Cl) = N[C@@H](Cc1ccc(Cl)cc1)C(=O)O; NMeGly(cPent) = CN[C@H](C(=O)O)C1CCCC1; Phe(3-I) = N[C@@H](Cc1cccc(I)c1)C(=O)O; X26 = O=C([C@@H]1CCC[C@H]1N[*:1])[*:2]; NMeAla(cPr) = CN[C@@H](CC1CC1)C(=O)O; Phe(2-Me) = Cc1ccccc1C[C@H](N)C(=O)O; Gly(cPent) = N[C@H](C(=O)O)C1CCCC1; NMeCha = CN[C@@H](CC1CCCCC1)C(=O)O; NMehLeu = CN[C@@H](CCC(C)C)C(=O)O; Gly(N-(CH2)2OEt) = CCOCCNCC(=O)O; NMeChg = CN[C@H](C(=O)O)C1CCCCC1; NMeF = CN[C@@H](Cc1ccccc1)C(=O)O; NMeD = CN[C@@H](CC(=O)O)C(=O)O; NMeL = CN[C@@H](CC(C)C)C(=O)O; NMeV = CN[C@H](C(=O)O)C(C)C; d(β3hA) = C[C@@H](N)CC(=O)O; N(iPr)Gly = CC(C)NCC(=O)O; Pip = O=C(O)[C@@H]1CCCCN1; dPip = O=C(O)[C@H]1CCCCN1; NMeA = CN[C@@H](C)C(=O)O; NMeAib = CNC(C)(C)C(=O)O; Nle = CCCC[C@H](N)C(=O)O; Piperidide = C1CCN(*)CC1; Pyrrolidide = C1CCN(*)C1; Ac5c = NC1(C(=O)O)CCCC1; Aze = O=C(O)[C@@H]1CCN1; Sar = CNCC(=O)O; OAll = C=CCO*

target: T1, Kras and SOS1 (biotin-tagged human Kras loaded with GDP, His-tagged human SOS1) (Homo sapiens, UniProt P01116, G12D); test: Protein-protein interaction inhibition between Kras and SOS1 (KrasGl2D-SOS PPI) using AlphaScreen; format: binding; settings: AlphaScreen; biotin-tagged human Kras loaded with GDP, His-tagged human SOS1; read-out: KRAS G12D-SOS PPI IC50
T1 construct: made in house; host or cells: E. coli (stated for Kras only)
T1 sequence (P01116 1-188 isoform P01116-2 G12D): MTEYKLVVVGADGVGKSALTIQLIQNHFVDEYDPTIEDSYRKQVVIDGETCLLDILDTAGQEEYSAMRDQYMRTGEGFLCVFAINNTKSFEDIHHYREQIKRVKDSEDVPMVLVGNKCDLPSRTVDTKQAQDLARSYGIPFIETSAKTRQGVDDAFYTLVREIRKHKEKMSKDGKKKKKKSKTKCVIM
Outline: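 Binding between SOS1 and Kras is detected as bead-proximity luminescence: illuminate Ni-conjugated donors (680 nm), collect 520-620 nm emission from streptavidin-conjugated acceptors; Kras carries biotin and GDP loaded after purification, SOS1 carries a His tag.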

Structure (SMILES) | pIC50
CC[C@H](C)[C@@H]1NC(=O)[C@H](CCC(C)C)N(C)C(=O)C[C@@H](C(=O)N(C)C)N(C)C(=O)[C@H](C2CCCC2)N(C)C(=O)C2(CCCC2)NC(=O)[C@@H]2CCCN2C(=O)[C@H](CCc2ccc(C(F)(F)F)c(Cl)c2)NC(=O)CN(C)C(=O)[C@H](Cc2ccc(C)cc2)N(C)C(=O)[C@@H]2CCN2C(=O)[C@H](C)NC1=O [Compound 303, (5S,8S,11S,15S,18S,23aS,29S,35S,37aS)-8-((S)-sec-butyl)-29-(3-chloro-4-(trifluoromethyl)phenethyl)-18-cyclopentyl-11-isopentyl-N,N,5,12,16,19,33,36-octamethyl-35-(4-methylbenzyl)-4,7,10,13,17,20,23,28,31,34,37-undecaoxotetratriacontahydro-2H,4H-spiro[azeto[2,1-u]pyrrolo[2,1-i][1,4,7,10,13,16,19,22,25,28,31]undecaazacyclotetratriacontine-21,1′-cyclopentane]-15-carboxamide] ([NMehLeu]IA[Aze][NMePhe(4-Me)][Sar][hPhe(3-Cl-4-CF3)]P[Ac5c][NMeGly(cPent)][NMeD]-NMe2; lactam N-11) | 9.17
CC[C@H](C)[C@@H]1NC(=O)[C@H](CC(C)C)N(C)C(=O)C[C@@H](C)NC(=O)[C@H](C(C)C)N(C)C(=O)C2(CCCC2)NC(=O)[C@@H]2CCCN2C(=O)[C@H](CCc2ccc(C(F)(F)F)c(Cl)c2)NC(=O)CN(C)C(=O)[C@H](CC2CCCCC2)N(C)C(=O)CN(C)C(=O)CN(C(C)C)C1=O [Compound 305] (cyclo([Ac5c][NMeV][d(β3hA)][NMeL]I[N(iPr)Gly][Sar][NMeCha][Sar][hPhe(3-Cl-4-CF3)]P)) | 6.77
C=CCOC(=O)CC[C@@H]1NC(=O)[C@H](CCc2ccc(C(F)(F)F)cc2)NC(=O)CN(C)C(=O)[C@H](Cc2ccc(Cl)cc2)N(C)C(=O)CN(C)C(=O)CN(C)C(=O)[C@H]([C@@H](C)CC)NC(=O)[C@H](C)N(C)C(=O)C[C@@H](C(=O)N2CCCC2)NC(=O)[C@H](CC(C)C)N(C)C(=O)[C@H](Cc2ccccc2)N(C)C1=O [Compound 306] ([NMeA]I[Sar][Sar][NMePhe(4-Cl)][Sar][hPhe(4-CF3)]E(OAll)[NMeF][NMeL]D-Pyrrolidide; lactam N-11) | 7.36
CC[C@H](C)[C@@H]1NC(=O)[C@H](CC(C)C)N(C)C(=O)C[C@@H](C(=O)N2CCCC2)N(C)C(=O)[C@H](CC(C)C)NC(=O)C(C)(C)N(C)C(=O)[C@H](CC(C)C)NC(=O)[C@H](CCc2ccc(C(F)(F)F)c(F)c2)NC(=O)CN(C)C(=O)[C@H](CC2CCCCC2)N(C)C(=O)CN(C)C(=O)CN(C)C1=O [Compound 312] ([NMeL]I[Sar][Sar][NMeCha][Sar][hPhe(3-F,4-CF3)]L[NMeAib]L[NMeD]-Pyrrolidide; lactam N-11) | 9.00
CC[C@H](C)[C@@H]1NC(=O)[C@H](CC(C)C)N(C)C(=O)C[C@@H](C(=O)N2CCCCC2)N(C)C(=O)[C@H](CC(C)C)NC(=O)C(C)(C)N(C)C(=O)[C@H](Cc2ccc(OC)cc2)NC(=O)[C@H](Cc2cccc(I)c2)NC(=O)CN(C)C(=O)[C@H](CC2CCCCC2)N(C)C(=O)CN(C)C(=O)CN(C)C1=O [Compound 320] ([NMeL]I[Sar][Sar][NMeCha][Sar][Phe(3-I)]Y(Me)[NMeAib]L[NMeD]-Piperidide; lactam N-11) | 8.00
CC[C@H](C)[C@@H]1NC(=O)[C@H](CC(C)C)N(C)C(=O)C[C@@H](C(=O)N2CCCCC2)N(C)C(=O)[C@H](C(C)C)N(C)C(=O)C2(CCCC2)NC(=O)[C@@H]2CCCN2C(=O)[C@H](CCc2ccc(Cl)c(Cl)c2)NC(=O)CN(C)C(=O)[C@H](CC2CCCCC2)N(C)C(=O)[C@@H]2CCCCN2C(=O)CN(C)C1=O [Compound 324] ([NMeL]I[Sar][Pip][NMeCha][Sar][hPhe(3,4-Cl2)]P[Ac5c][NMeV][NMeD]-Piperidide; lactam N-11) | 6.42
CC[C@H](C)[C@@H]1NC(=O)[C@H](CC(C)C)N(C)C(=O)C[C@@H](C(=O)N2CCCCC2)N(C)C(=O)[C@H](C(C)C)N(C)C(=O)C2(CCCC2)NC(=O)[C@@H]2CCCN2C(=O)[C@H](CCc2ccc(C(F)(F)F)c(Cl)c2)NC(=O)CN(C)C(=O)[C@H](CC2CC2)N(C)C(=O)CN(C)C(=O)CN(C)C1=O [Compound 325] ([NMeL]I[Sar][Sar][NMeAla(cPr)][Sar][hPhe(3-Cl-4-CF3)]P[Ac5c][NMeV][NMeD]-Piperidide; lactam N-11) | 7.85
CCOCCN1CC(=O)N(C)CC(=O)N(C)[C@@H](CC2CCCCC2)C(=O)N(C)CC(=O)N[C@@H](CCc2ccc(C(F)(F)F)c(Cl)c2)C(=O)N2CCC[C@H]2C(=O)NC2(CCCC2)C(=O)N(C)[C@@H](C(C)C)C(=O)N[C@H](C)CC(=O)N(C)[C@@H](CC(C)C)C(=O)N[C@@H]([C@@H](C)CC)C1=O [Compound 329] (cyclo([Ac5c][NMeV][d(β3hA)][NMeL]I[Gly(N-(CH2)2OEt)][Sar][NMeCha][Sar][hPhe(3-Cl-4-CF3)]P)) | 7.40
CC[C@H](C)[C@@H]1NC(=O)[C@H](CC(C)C)N(C)C(=O)C[C@@H](C(=O)N2CCCCC2)N(C)C(=O)[C@H](CC(C)C)NC(=O)C(C)(C)N(C)C(=O)[C@H](Cc2ccc(Cl)cc2)NC(=O)[C@H](Cc2cccc(I)c2)NC(=O)CN(C)C(=O)[C@H](CC2CCCCC2)N(C)C(=O)CN(C)C(=O)CN(C)C1=O [Compound 330] ([NMeL]I[Sar][Sar][NMeCha][Sar][Phe(3-I)][Phe(4-Cl)][NMeAib]L[NMeD]-Piperidide; lactam N-11) | 7.10
CC[C@H](C)[C@@H]1NC(=O)[C@H](C)N(C)C(=O)C[C@@H](C(=O)N2CCCCC2)N(C)C(=O)[C@H](C(C)C)N(C)C(=O)[C@H](CC(C)C)NC(=O)[C@H](CCN2CC(F)(F)C2)N(C)C(=O)[C@H](CCc2ccc(C(F)(F)F)c(Cl)c2)NC(=O)CN(C)C(=O)[C@H](CC2CCCCC2)N(C)C(=O)CN(C)C(=O)CN(C)C1=O [Compound 331] ([NMeA]I[Sar][Sar][NMeCha][Sar][hPhe(3-Cl-4-CF3)][NMeDab(N,N-(CH2CF2CH2))]L[NMeV][NMeD]-Piperidide; lactam N-11) | 7.52
CC(C)C[C@H]1C(=O)N[C@@H](C2CCCC2)C(=O)N(C)CC(=O)N(C)CC(=O)N(C)[C@@H](CC2CCCCC2)C(=O)N(C)CC(=O)N[C@@H](CCc2ccc(C(F)(F)F)c(Cl)c2)C(=O)N2CCC[C@H]2C(=O)NC2(CCCC2)C(=O)N(C)[C@@H](C(C)C)C(=O)N[C@H](C)CC(=O)N1C [Compound 333] (cyclo([Ac5c][NMeV][d(β3hA)][NMeL][Gly(cPent)][Sar][Sar][NMeCha][Sar][hPhe(3-Cl-4-CF3)]P)) | 6.96
CC[C@H](C)[C@@H]1NC(=O)[C@H](CC(C)C)N(C)C(=O)C[C@@H](C(=O)N2CCCCC2)N(C)C(=O)[C@H](CC(C)C)NC(=O)C(C)(C)N(C)C(=O)[C@H](Cc2ccccc2C)NC(=O)[C@H](Cc2cccc(I)c2)NC(=O)CN(C)C(=O)[C@H](Cc2ccc(C)cc2)N(C)C(=O)[C@@H]2CCN2C(=O)CN(C)C1=O [Compound 335] ([NMeL]I[Sar][Aze][NMePhe(4-Me)][Sar][Phe(3-I)][Phe(2-Me)][NMeAib]L[NMeD]-Piperidide; lactam N-11) | 7.17
CC[C@H](C)[C@@H]1NC(=O)[C@H](CC(C)C)N(C)C(=O)C[C@@H](C(=O)N2CCCCC2)N(C)C(=O)[C@H](CC(C)C)NC(=O)C(C)(C)N(C)C(=O)[C@H](Cc2ccc(C(F)(F)F)cc2)NC(=O)[C@H](Cc2cccc(I)c2)NC(=O)CN(C)C(=O)[C@H](CC2CCCCC2)N(C)C(=O)CN(C)C(=O)CN(C)C1=O [Compound 336] ([NMeL]I[Sar][Sar][NMeCha][Sar][Phe(3-I)][Phe(4-CF3)][NMeAib]L[NMeD]-Piperidide; lactam N-11) | 7.03
CC[C@H](C)[C@@H]1NC(=O)[C@H](CC(C)C)N(C)C(=O)C[C@@H](C(=O)N2CCCCC2)N(C)C(=O)[C@H](C2CCCCC2)N(C)C(=O)C2(CCCC2)NC(=O)[C@H](Cc2cncc(C)c2)N(C)C(=O)[C@H](CCc2ccc(C(F)(F)F)c(Cl)c2)NC(=O)CN(C)C(=O)[C@H](CC2CCCCC2)N(C)C(=O)[C@@H]2CCN2C(=O)[C@H](C)N(C)C1=O [Compound 338] ([NMeL]I[NMeA][Aze][NMeCha][Sar][hPhe(3-Cl-4-CF3)][X17][Ac5c][NMeChg][NMeD]-Piperidide; lactam N-11) | 6.66
CC[C@H](C)[C@@H]1NC(=O)[C@H](CC(C)C)N(C)C(=O)[C@@H]2CCC[C@H]2NC(=O)[C@H](C(C)C)N(C)C(=O)C2(CCCC2)NC(=O)[C@@H]2CCCN2C(=O)[C@H](CCc2ccc(C(F)(F)F)c(Cl)c2)NC(=O)CN(C)C(=O)[C@H](CC2CCCCC2)N(C)C(=O)CN(C)C(=O)CN(C)C1=O [Compound 347] (cyclo([Ac5c][NMeV][X26][NMeL]I[Sar][Sar][NMeCha][Sar][hPhe(3-Cl-4-CF3)]P)) | 7.57
CC[C@H](C)[C@@H]1NC(=O)[C@H](C)N(C)C(=O)C[C@@H](C(=O)N2CCCCC2)N(C)C(=O)[C@H](C(C)C)N(C)C(=O)C2(CCCC2)NC(=O)[C@@H]2CCCN2C(=O)[C@H](CCc2ccc(C(F)(F)F)c(Cl)c2)NC(=O)[C@H]2CCCCN2C(=O)[C@H](CC2CCCCC2)N(C)C(=O)[C@@H]2CCN2C(=O)[C@H](C)N(C)C1=O [Compound 349] ([NMeA]I[NMeA][Aze][NMeCha][dPip][hPhe(3-Cl-4-CF3)]P[Ac5c][NMeV][NMeD]-Piperidide; lactam N-11) | 6.72
CCCC[C@@H]1NC(=O)[C@H](CCc2ccc(C(F)(F)F)c(Cl)c2)NC(=O)CN(C)C(=O)[C@H](Cc2ccc(Cl)cc2)N(C)C(=O)[C@@H]2CCN2C(=O)CN(C)C(=O)[C@H]([C@@H](C)CC)NC(=O)[C@@H]2CCCCN2C(=O)C[C@@H](C(=O)N2CCCCC2)N(C)C(=O)[C@H](CC(C)C)NC(=O)C(C)(C)N(C)C1=O [Compound 352] ([Pip]I[Sar][Aze][NMePhe(4-Cl)][Sar][hPhe(3-Cl-4-CF3)][Nle][NMeAib]L[NMeD]-Piperidide; lactam N-11) | 8.26
